According to ChEMBL document CHEMBL1201862, “PubChem BioAssay data set” (2004):
Active and inactive are the calls of the source.

Assays:
[1] = target: T1, High affinity choline transporter 1 (Homo sapiens, UniProt Q9GZV3); experiment: CHT inhibitors, dose response, cell-based, 5-point CRC, membrane potential dye (AID 504840); type: functional
T1 sequence (Q9GZV3 whole entry): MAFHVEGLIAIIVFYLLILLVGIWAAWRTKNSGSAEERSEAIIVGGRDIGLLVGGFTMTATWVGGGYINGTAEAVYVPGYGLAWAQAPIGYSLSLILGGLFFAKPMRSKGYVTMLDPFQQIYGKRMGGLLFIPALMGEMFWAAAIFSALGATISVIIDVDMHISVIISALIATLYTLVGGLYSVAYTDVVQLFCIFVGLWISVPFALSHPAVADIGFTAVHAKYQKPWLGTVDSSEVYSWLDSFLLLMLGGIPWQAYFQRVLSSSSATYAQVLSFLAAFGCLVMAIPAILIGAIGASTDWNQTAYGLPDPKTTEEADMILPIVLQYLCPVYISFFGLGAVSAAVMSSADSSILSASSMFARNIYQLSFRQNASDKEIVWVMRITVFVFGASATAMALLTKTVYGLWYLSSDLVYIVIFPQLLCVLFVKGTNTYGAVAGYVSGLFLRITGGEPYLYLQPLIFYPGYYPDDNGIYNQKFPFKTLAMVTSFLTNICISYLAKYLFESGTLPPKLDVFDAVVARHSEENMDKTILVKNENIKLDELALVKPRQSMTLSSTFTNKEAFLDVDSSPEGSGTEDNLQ

[2] = target: T2, Protein skinhead-1 (Caenorhabditis elegans, UniProt P34707); type: functional
T2 sequence (P34707 whole entry): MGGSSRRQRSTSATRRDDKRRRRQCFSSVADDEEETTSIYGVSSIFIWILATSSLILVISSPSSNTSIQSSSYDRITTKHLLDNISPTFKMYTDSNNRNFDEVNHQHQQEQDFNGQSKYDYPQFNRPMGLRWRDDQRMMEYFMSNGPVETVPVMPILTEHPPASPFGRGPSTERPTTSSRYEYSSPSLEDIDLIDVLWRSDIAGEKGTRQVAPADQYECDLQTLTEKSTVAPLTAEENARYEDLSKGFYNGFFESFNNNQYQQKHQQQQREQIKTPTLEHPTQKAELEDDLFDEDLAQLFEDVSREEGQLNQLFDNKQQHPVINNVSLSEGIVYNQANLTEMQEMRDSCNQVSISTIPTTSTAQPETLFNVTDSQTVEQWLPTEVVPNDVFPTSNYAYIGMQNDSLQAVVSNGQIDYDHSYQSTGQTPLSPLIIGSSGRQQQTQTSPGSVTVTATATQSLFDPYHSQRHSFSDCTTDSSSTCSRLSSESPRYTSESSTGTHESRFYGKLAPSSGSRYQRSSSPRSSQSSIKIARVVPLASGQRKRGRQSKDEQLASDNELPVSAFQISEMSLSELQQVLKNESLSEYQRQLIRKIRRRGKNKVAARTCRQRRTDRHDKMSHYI

[3] = target: FAD-linked sulfhydryl oxidase ALR (Homo sapiens, UniProt P55789); experiment: inhibitors of human ALR sulfhydryl oxidase, dose response, biochemical, H2O2 detection, luminescence, cherry-pick (AID 493248)
Sequence of FAD-linked sulfhydryl oxidase ALR (P55789 whole entry): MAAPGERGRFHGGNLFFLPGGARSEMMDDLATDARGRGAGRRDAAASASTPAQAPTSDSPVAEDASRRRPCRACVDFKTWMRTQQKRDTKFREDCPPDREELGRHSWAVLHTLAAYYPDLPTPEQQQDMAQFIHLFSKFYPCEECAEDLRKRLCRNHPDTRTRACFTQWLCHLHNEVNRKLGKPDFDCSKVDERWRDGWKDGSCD

[4] = growth suppression of PTEN-null colon cells, dose response, cell-based, HCT116 PTEN knockout (AID 1047); type: functional;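 further: HCT116 colon tumor cells with PTEN knocked out; cells exposed to compound for 60 hours before readout; potency for loss of cell viability measured by luminescence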
[5] = growth suppression of beta-catenin-knockout colon cells, dose response, cell-based, HCT116, human colon tumor (AID 1045); type: functional;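 further: HCT116 colon tumor cells with beta catenin knocked out; cells exposed to compound for 60 hours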
[6] = microbe, parasite or virus in culture; type: functional; conditions: Mycobacterium tuberculosis
[7] = target: T3, Polyadenylate-binding protein 1 (Homo sapiens, UniProt P11940); experiment: PABP1 MLLE–PAM2 interaction inhibitors, dose response, miRNA deadenylation inhibitor project, biochemical, fluorescence polarization, Cy5-PAM2 peptide, secondary (AID 602260); type: functional; conditions: read-out: IC50_Mean
T3 sequence (P11940 whole entry): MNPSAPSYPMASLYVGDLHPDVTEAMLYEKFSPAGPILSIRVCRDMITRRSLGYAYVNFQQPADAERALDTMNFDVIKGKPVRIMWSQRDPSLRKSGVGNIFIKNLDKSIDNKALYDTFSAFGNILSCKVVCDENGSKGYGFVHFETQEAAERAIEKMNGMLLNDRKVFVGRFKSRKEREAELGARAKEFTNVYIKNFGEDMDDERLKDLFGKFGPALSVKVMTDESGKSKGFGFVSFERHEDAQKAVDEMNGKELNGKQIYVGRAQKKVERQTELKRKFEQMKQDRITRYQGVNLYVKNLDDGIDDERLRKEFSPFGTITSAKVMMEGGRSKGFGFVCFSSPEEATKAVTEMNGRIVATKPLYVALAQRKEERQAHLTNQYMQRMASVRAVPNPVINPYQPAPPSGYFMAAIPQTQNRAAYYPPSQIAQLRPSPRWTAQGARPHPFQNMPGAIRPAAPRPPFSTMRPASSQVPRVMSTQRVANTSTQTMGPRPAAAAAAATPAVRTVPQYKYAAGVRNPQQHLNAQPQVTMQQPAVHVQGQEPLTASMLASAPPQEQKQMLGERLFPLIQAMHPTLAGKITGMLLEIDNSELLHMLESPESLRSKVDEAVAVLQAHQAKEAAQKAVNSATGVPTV

[8] = target: T3, Polyadenylate-binding protein 1; experiment: PABP1 MLLE–PAM2 binding inhibitor potency, dose response, biochemical, fluorescence polarization, FITC-PAM2 peptide (AID 602259); type: functional; conditions: read-out: IC50_Mean
[9] = inhibitors of intracellular T. cruzi replication, confirmation, NIH3T3 host cells, beta-gal luminescence (AID 2044); type: functional, cell-based;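 further: intracellular parasites grown in NIH/3T3 mouse fibroblasts as host cells; luminescent beta-galactosidase reporter signal from transgenic T. cruzi replicating inside host cells; inhibitors lower the luminescence signal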
[10] = cytotoxicity toward NIH3T3 fibroblasts, dose response, counter-screen, cell-based, ATP luminescence, mouse fibroblasts (AID 2010); type: functional;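 further: cells exposed to compound for about 90 hours before reading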
[11] = system: INS1; experiment: beta cell apoptosis inhibitors, cytokine rescue, dose response, luminescence, retest (AID 449756); type: functional, cell-based; conditions: Rattus norvegicus;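 further: cell death triggered by IL-1 beta plus TNF-alpha plus IFN-gamma mixture; protective hits raise ATP signal compared with cytokine alone wells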
[12] = target: T4, Streptokinase A (Streptococcus pyogenes serotype M1, UniProt P10520); experiment: S. pyogenes streptokinase expression inhibitors, potency, dose response, plasminogen activation absorbance, OD405 (AID 1914); type: functional, Streptococcus pyogenes M1 GAS;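 further: secreted streptokinase activity via plasminogen activation per viability signal from cell pellet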
T4 sequence (P10520 whole entry): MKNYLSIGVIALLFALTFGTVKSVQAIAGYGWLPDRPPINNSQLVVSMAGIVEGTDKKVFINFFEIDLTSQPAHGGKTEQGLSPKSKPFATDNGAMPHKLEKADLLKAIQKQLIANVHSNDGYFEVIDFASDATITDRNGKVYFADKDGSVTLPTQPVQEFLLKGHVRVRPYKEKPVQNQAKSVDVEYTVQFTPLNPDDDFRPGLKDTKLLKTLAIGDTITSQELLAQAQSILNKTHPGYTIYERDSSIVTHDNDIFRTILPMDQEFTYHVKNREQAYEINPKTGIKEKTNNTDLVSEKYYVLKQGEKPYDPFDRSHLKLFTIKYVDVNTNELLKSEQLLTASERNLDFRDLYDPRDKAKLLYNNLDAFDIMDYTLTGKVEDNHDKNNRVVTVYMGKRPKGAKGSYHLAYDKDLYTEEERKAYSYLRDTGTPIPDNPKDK

[13] = system: Streptococcus; experiment: Group A Streptococcus viability loss, dose response, counter-screen for streptokinase expression inhibitor project, luminescence, BacTiterGlo (AID 1915); type: functional, organism-based;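 further: potency for reduction of bacterial viability or growth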
[14] = system: Streptococcus sp. 'group A'; experiment: growth inhibition of control SK(-) GAS strain, dose response, counter-screen for streptokinase expression inhibitor project, luminescence, kanamycin, BacTiterGlo, confirmation (AID 1900); type: functional, organism-based
[15] = target: T5, Rac GTPase-activating protein 1 (Homo sapiens, UniProt Q9H0H5); experiment: MgcRacGAP GTPase-activating activity inhibitors, confirmation, biochemical, ADP Hunter fluorescence, primary and confirmatory (AID 624330); type: functional
T5 sequence (Q9H0H5 whole entry): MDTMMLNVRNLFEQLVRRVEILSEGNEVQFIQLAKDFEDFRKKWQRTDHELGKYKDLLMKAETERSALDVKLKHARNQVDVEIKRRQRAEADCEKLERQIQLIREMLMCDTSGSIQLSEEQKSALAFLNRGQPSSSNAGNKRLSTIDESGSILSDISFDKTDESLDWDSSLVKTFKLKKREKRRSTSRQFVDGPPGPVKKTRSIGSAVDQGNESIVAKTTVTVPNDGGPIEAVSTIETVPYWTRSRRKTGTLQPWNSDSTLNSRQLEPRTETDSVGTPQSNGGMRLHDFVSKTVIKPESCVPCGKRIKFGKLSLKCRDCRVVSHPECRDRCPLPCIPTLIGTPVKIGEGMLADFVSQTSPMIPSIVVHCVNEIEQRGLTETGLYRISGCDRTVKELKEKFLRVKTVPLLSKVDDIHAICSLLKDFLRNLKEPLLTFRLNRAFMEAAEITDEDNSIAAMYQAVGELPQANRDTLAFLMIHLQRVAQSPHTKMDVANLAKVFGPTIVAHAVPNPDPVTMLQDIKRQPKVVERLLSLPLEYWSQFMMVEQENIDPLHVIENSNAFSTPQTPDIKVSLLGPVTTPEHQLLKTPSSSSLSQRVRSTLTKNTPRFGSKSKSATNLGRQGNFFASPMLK

[16] = system: H9c2; experiment: cells; type: functional, cell-based; conditions: Rattus norvegicus, H9c2, Myocardium;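 further: confirmatory concentration-response retest of ultra-high-throughput screening hits for modulation of myocardial damage; cell death induced by hydrogen peroxide oxidative stress; compound pretreatment for 60 min then peroxide exposure for 2 h; potency is for protecting the cells against peroxide damage rather than for killing them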
[17] = Shn3 3'UTR reporter inhibitors, dose response, cell-based, Clone20 osteoblasts, firefly luciferase, cherry-picked (AID 624132); type: functional;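 further: firefly luciferase luminescence from reporter carrying the Shn3 3'UTR in osteoblasts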
[18] = control 3'UTR Renilla luciferase suppression, dose response, counter-screen for Shn3 inhibitor project, cell-based, Clone20-Shn3RL, cherry-picked (AID 624133); type: functional
[19] = target: Paired box protein Pax-8 (Homo sapiens, UniProt Q06710); experiment: inhibitors of PAX8-driven TPO luciferase reporter, dose response, RMG-I cells, cherry-pick (AID 687027); type: functional, cell-based;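 further: luciferase reporter driven by Pax8 target thyroperoxidase promoter measured by SteadyGlo luminescence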
Sequence of Paired box protein Pax-8 (Q06710 whole entry): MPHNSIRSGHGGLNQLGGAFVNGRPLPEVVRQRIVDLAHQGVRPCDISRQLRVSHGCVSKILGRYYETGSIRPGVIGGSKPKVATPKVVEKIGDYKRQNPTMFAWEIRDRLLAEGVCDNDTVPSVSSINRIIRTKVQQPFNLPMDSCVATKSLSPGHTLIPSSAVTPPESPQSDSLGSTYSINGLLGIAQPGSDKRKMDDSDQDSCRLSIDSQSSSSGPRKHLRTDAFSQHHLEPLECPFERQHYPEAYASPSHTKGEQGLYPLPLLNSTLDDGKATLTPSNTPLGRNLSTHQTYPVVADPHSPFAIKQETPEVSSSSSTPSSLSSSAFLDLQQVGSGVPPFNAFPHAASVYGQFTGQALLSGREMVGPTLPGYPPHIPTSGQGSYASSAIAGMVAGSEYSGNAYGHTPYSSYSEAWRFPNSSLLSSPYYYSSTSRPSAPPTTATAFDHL

[20] = NIH:OVCAR-3 ovarian cancer cell cytotoxicity, dose response, PAX8 inhibitor project, plate reader, dry powder samples (AID 743044); type: functional, cell-based
[21] = Luminescence Cell-Based Dose Retest to Confirm Inhibitors of Cancer Stem Cells. [Related pubchem assays (depositor defined):AID2717, AID2721]; type: functional; conditions: Homo sapiens

CC#CCN(CC#CC)S(=O)(=O)c1ccc(-n2cnnn2)c(OC)c1
IC50 [1]: 3.16 µM (active)

c1ccc(CSc2ccc(-c3ccco3)nn2)cc1
IC50 [2]: > 100 µM (inactive)

CCCS(=O)(=O)N1CCC(C(=O)NCc2cccnc2)CC1
IC50 [2]: > 100 µM (inactive)

CCCCOC(=O)c1ccc(NC(=O)/C=C/c2cccs2)cc1
IC50 [2]: > 100 µM (inactive)

Fc1ccccc1CSc1ccc(-c2ccco2)nn1
IC50 [2]: 64.6 µM (inactive)

Cc1occc1C(=O)NCCCCc1ccccc1
AC50 [3]: 0.488 µM (active)

Cc1ccc(N/C=C/C(=O)c2cccs2)cc1C
IC50 [2]: > 100 µM (inactive)

CC(=O)Nc1ccccc1N(CC(O)Cn1c2ccccc2c2ccccc21)S(=O)(=O)c1ccc(C)cc1 (stereo not drawn)
EC50 [4]: 13.5 µM (active) | EC50 [5]: 17.1 µM (active)

S=C(Nc1ccc(Cl)cc1)NC1CC2CCC(C1)N2Cc1ccccc1 (stereo not drawn)
CC50 [6]: > 40 µM (active)

N=c1c2c(ncn1CCN1CCOCC1)Oc1ccc3ccccc3c1C2c1ccccc1 (stereo not drawn)
EC50 [4]: 16.5 µM (active) | EC50 [5]: 15.3 µM (active)

CCCCC(=O)OCC(=O)N1N=C(c2c[nH]c3ccccc23)C(O)C1c1ccc(OC)cc1 (stereo not drawn)
CC50 [6]: > 40 µM (active)

O=C(NC1=NCCS1)c1csc2ccccc12
IC50 [7]: > 66 µM (inactive) | AC50 [3]: 0.582 µM (active) | IC50 [8]: > 66 µM (inactive)

COc1ccc(C(=O)N(C)CCCC2CCCC2)cc1OC1CCN(C(C)C)CC1
IC50 [1]: 12 µM (active)

CCn1c(SCc2nc(-c3ccccc3)no2)nnc1-c1ccco1
IC50 [1]: 13.6 µM (active)

CCOC(=O)N1CCC(N2Cc3cccc(C(=O)Nc4ccc(N(CC)CC)cc4C)c3C2=O)CC1
CC50 [6]: > 40 µM (active)

Cc1cccc(C)c1NC(=O)c1ccc(CN2CCc3ccccc3C2)cc1
IC50 [1]: 18.2 µM (active)

CCCc1cc(O)c2c(C)cc(=O)oc2c1
IC50 [1]: 14.5 µM (active)

Cc1ccc(NC2CCCN(C(=O)c3ccc(C)c(N4CCNC4=O)c3)C2)cc1C (stereo not drawn)
AC50 [3]: 3.32 µM (active)

CN=C(S)N=CNOCc1c(Cl)cccc1Cl
CC50 [6]: > 40 µM (active)

CCn1c(=O)c(CCC(=O)N2CCN(c3ccccn3)CC2)c(C)c2c(C)nn(-c3cccc(C)c3)c21
CC50 [6]: > 40 µM (active) | EC50 [9]: 1.59 µM (active) | EC50 [10]: > 60 µM (not active)

CC1=CC(C)(C)n2c(O)c(C3=NC(=S)NC3=O)c3cc(OC(=O)c4cccc5ccccc45)cc1c32
EC50 [4]: 19.6 µM (active) | EC50 [5]: 24 µM (active)

c1ccc2c(c1)ncn2CCCOc1ccc2c(c1)CCC2
AC50 [11]: 7.64 µM (active) | EC50 [4]: 30.5 µM (active) | EC50 [12]: > 150 µM (not active) | EC50 [13]: > 150 µM (not active) | EC50 [5]: 21.6 µM (active) | EC50 [14]: 22.4 µM (active)

N#C/C=C\Oc1ccc(Cl)cc1N
CC50 [6]: > 40 µM (active) | IC50 [15]: 218 µM (active)

Cc1cc(C)c(NC(=O)c2ccc(CN3CCc4ccccc4C3)cc2)c(C)c1
IC50 [1]: 12.9 µM (active)

c1ccc(-c2noc(CSc3nc4ccccc4o3)n2)cc1
IC50 [2]: 75.7 µM (inactive)

Cc1ccc2nc(O)c(CN(Cc3ccco3)S(=O)(=O)c3c(C)ccc4nsnc34)cc2c1
IC50 [16]: 8.78 µM (active) | EC50 [4]: 13.2 µM (active) | EC50 [5]: 14.8 µM (active)

COc1cc(C(=O)c2ccccc2)c(OC)cc1C(=O)Nc1ccc(O)cc1
AC50 [3]: 0.039 µM (active)

COc1cccc(OC)c1C(=O)N1CCN=C1SCc1cccnc1
AC50 [3]: 0.043 µM (active)

C[C@H]1CCC/C=C/[C@@H]2C[C@H](O)C[C@H]2[C@@H](O)/C=C/C(=O)O1
AC50 [17]: 2.17 µM (active) | AC50 [18]: 1.7 µM (active)

C[C@@H]1CN([C@H](C)CO)C(=O)c2cccc(NC(=O)Nc3cccc4ccccc34)c2O[C@H]1CN(C)C(=O)Nc1ccc(C(F)(F)F)cc1
AC50 [19]: 14.6 µM (active) | AC50 [20]: 64.2 µM (active)

Cc1cccc(OCCNc2cc(N3CCN(C)CC3)ccc2[N+](=O)[O-])c1
EC50 [9]: 0.495 µM (active) | AC50 [21]: 1.47 µM (active) | EC50 [4]: 19.8 µM (active) | EC50 [5]: 86.1 µM (active) | EC50 [10]: > 60 µM (not active)

Cc1cccc(/C=N/n2c(S)nnc2-c2ccccc2)c1O
AC50 [3]: 3.82 µM (active)
